Results taken from patent US9695155B2, “Herbicidal substituted pyrimidinyloxy benzene compounds” (E. I. DU PONT DE NEMOURS AND COMPANY, priority 2013, dated 2017).

What was measured:
[1] = system: chickweed; test: Test C postemergence; type: in vivo, Stellaria media
Outline: (§1)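 Sown in loam/sand → sprayed pre-emergence; or grown to 1–4 leaves in peat mix → sprayed post-emergence. Same solvent/surfactant formulation both ways. Greenhouse 13–15 d. Score 0–100 visual.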

[2] = system: wild oat; test: Test C postemergence; type: in vivo, Avena fatua
Outline: as §1

[3] = system: morningglory; test: Test C postemergence; type: in vivo, Ipomoea coccinea
Outline: as §1

[4] = system: yellow nutsedge; test: Test C postemergence; type: in vivo, Cyperus esculentus; conditions: for Plant response rating, Nutsedge, Yellow: Postemergence
Outline: as §1

[5] = system: sedge, umbrella; test: Test B flooded paddy test; type: in vivo, Cyperus difformis; conditions: Flood, 250 g ai/ha; 0 to 100 scale where 0 is no effect and 100 is complete control
Outline: (§2)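 Greenhouse flooded-pot test: compounds dosed into 3 cm standing water over 2-leaf plants, flood held constant. Rated visually after 13–15 days on 0–100 (complete control = 100); a dash marks no test result.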

[6] = system: lambsquarters; test: Test C postemergence; type: in vivo, Chenopodium album
Outline: as §1

[7] = system: barnyardgrass; test: Test A postemergence; type: in vivo, Echinochloa crus-galli
Outline: (§3)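 Greenhouse pot test, loam/sand soil. Formulation: non-phytotoxic solvent mix plus surfactant. Pre: directed spray onto soil after sowing. Post: plants at 1–2 leaf, 2–10 cm. Rated visually vs untreated controls at ~10 d, 0 (no effect) to 100 (complete control).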

[8] = system: barnyardgrass; test: Test C postemergence; type: in vivo, Echinochloa crus-galli
Outline: as §1

[9] = system: large (Lg) crabgrass; test: Test C postemergence; type: in vivo, Digitaria sanguinalis
Outline: as §1

[10] = system: barnyardgrass; test: Test B flooded paddy test; type: in vivo, Echinochloa crus-galli; conditions: Flood, 250 g ai/ha; 0 to 100 scale where 0 is no effect and 100 is complete control
Outline: as §2

[11] = system: rice; test: Test B flooded paddy test; type: in vivo, Oryza sativa; conditions: Flood, 250 g ai/ha; 0 to 100 scale where 0 is no effect and 100 is complete control
Outline: as §2

[12] = system: large (Lg) crabgrass; test: Test A preemergence; type: in vivo, Digitaria sanguinalis; conditions: for Crabgrass, Large plant response rating: 500 g ai/ha
Outline: as §3

[13] = system: pigweed; test: Test A postemergence; type: in vivo, Amaranthus retroflexus; conditions: 0 to 100 scale where 0 is no effect and 100 is complete control
Outline: as §3

[14] = system: giant foxtail; test: Test C postemergence; type: in vivo, Setaria faberii
Outline: as §1

[15] = system: barnyardgrass; test: Test A preemergence; type: in vivo, Echinochloa crus-galli; conditions: for Barnyardgrass plant response rating: 500 g ai/ha
Outline: as §3

[16] = 16 g ai/ha, postemergence, 0 is no effect, 100 is complete control
[17] = 31 g ai/ha, postemergence, visual rating, scale 0 to 100 (0 no effect, 100 complete control), 13 to 15 days
[18] = 125 g ai/ha, postemergence, visual rating, scale 0 to 100 (0 no effect, 100 complete control)
[19] = Postemergence, 62 g ai/ha, scale 0 to 100 (0 no effect, 100 complete control)
[20] = 62 g ai/ha, scale 0 to 100 (0 no effect, 100 complete control)
[21] = 125 g ai/ha, 0 to 100 scale where 0 is no effect and 100 is complete control
[22] = 0 to 100 scale where 0 is no effect and 100 is complete control
[23] = Postemergence, 31 g ai/ha, scale 0 to 100 (0 no effect, 100 complete control), 13 to 15 days
[24] = 0 to 100 scale, 0 no effect, 100 complete control, approx. 10 days

## Clc1cnc(Oc2cccc(Cl)c2-n2cc(I)cn2)nc1 [Compound 181]
[1]; [16]
  Plant response rating (0 to 100), Chickweed: 55
[1]; [17]
  Chickweed plant response rating: 75
[1]; [18]
  Plant response rating, Chickweed: 85
[1]; [19]
  Plant response rating, Chickweed: 80
[2]; [16]
  Plant response rating (0 to 100), Oat, Wild: 0
[2]; [17]
  Oat, Wild plant response rating: 5
[2]; [18]
  Plant response rating, Oat, Wild: 5
[2]; [19]
  Plant response rating, Oat, Wild: 5
[3]; [16]
  Plant response rating (0 to 100), Morningglory: 15
[3]; [17]
  Morningglory plant response rating: 20
[3]; [18]
  Plant response rating, Morningglory: 98
[3]; [19]
  Plant response rating, Morningglory: 75
[4]; [16]
  Plant response rating (0 to 100), Nutsedge, Yellow: 0
[4]; [17]
  Nutsedge, Yellow plant response rating: 0
[4]; [20]
  Plant response rating, Nutsedge, Yellow: 5
[5]
  Plant response rating, Sedge, Umbrella: 85
[6]; [16]
  Plant response rating (0 to 100), Lambsquarters: 75
[6]; [17]
  Lambsquarters plant response rating: 100
[6]; [18]
  Plant response rating, Lambsquarters: 100
[6]; [19]
  Plant response rating, Lambsquarters: 100
[7]; [21]
  Barnyardgrass plant response rating: 60
[7]; 500 g ai/ha, 0 to 100 scale where 0 is no effect and 100 is complete control
  Plant response rating, Barnyardgrass: 90
[8]; [16]
  Plant response rating (0 to 100), Barnyardgrass: 5
[8]; [17]
  Barnyardgrass plant response rating: 5
[8]; [18]
  Plant response rating, Barnyardgrass: 10
[8]; [19]
  Plant response rating, Barnyardgrass: 10
[9]; [16]
  Plant response rating (0 to 100), Crabgrass, Large: 5
[9]; [17]
  Crabgrass, Large plant response rating: 5
[9]; [18]
  Plant response rating, Crabgrass, Large: 10
[9]; [19]
  Plant response rating, Crabgrass, Large: 10
[10]
  Plant response rating, Barnyardgrass: 0
[11]
  Plant response rating, Rice: 0
[12]; 125 g ai/ha
  Crabgrass, Large plant response rating (0 to 100 scale): 100
[12]; [22]
  Crabgrass, Large plant response rating: 100
[13]; 125 g ai/ha
  Pigweed plant response rating: 100
[13]; 500 g ai/ha
  Plant response rating, Pigweed: 100
[14]; [16]
  Plant response rating (0 to 100), Foxtail, Giant: 10
[14]; [17]
  Foxtail, Giant plant response rating: 10
[14]; [18]
  Plant response rating, Foxtail, Giant: 10
[14]; [19]
  Plant response rating, Foxtail, Giant: 25
[15]; 125 g ai/ha
  Barnyardgrass plant response rating (0 to 100 scale, 0 is no effect, 100 is complete control): 50
[15]; [22]
  Barnyardgrass plant response rating: 100

## N#Cc1cccc(Oc2ncc(Cl)cn2)c1-n1cc(Cl)cn1 [Compound 72]
[1]; 125 g ai/ha, postemergence
  Plant response rating (0 to 100), Chickweed: 80
[1]; 250 g ai/ha, postemergence
  Plant response rating (0 to 100), Chickweed: 80
[1]; [23]
  Plant response rating, Chickweed: 50
[1]; [19]
  Plant response rating, Chickweed: 65
[2]; 125 g ai/ha, postemergence
  Plant response rating (0 to 100), Oat, Wild: 30
[2]; 250 g ai/ha, postemergence
  Plant response rating (0 to 100), Oat, Wild: 35
[2]; [23]
  Plant response rating, Oat, Wild: 5
[2]; [19]
  Plant response rating, Oat, Wild: 5
[3]; 125 g ai/ha, postemergence
  Plant response rating (0 to 100), Morningglory: 85
[3]; 250 g ai/ha, postemergence
  Plant response rating (0 to 100), Morningglory: 90
[3]; [23]
  Plant response rating, Morningglory: 75
[3]; [19]
  Plant response rating, Morningglory: 75
[4]; 125 g ai/ha, postemergence
  Plant response rating (0 to 100), Nutsedge, Yellow: 0
[4]; 250 g ai/ha, postemergence
  Plant response rating (0 to 100), Nutsedge, Yellow: 10
[4]; 31 g ai/ha, scale 0 to 100 (0 no effect, 100 complete control), 13 to 15 days
  Plant response rating, Nutsedge, Yellow: 0
[4]; [20]
  Plant response rating, Nutsedge, Yellow: 0
[5]
  Plant response rating, Sedge, Umbrella: 85
[6]; 125 g ai/ha, postemergence
  Plant response rating (0 to 100), Lambsquarters: 85
[6]; 250 g ai/ha, postemergence
  Plant response rating (0 to 100), Lambsquarters: 98
[6]; [23]
  Plant response rating, Lambsquarters: 75
[6]; [19]
  Plant response rating, Lambsquarters: 75
[7]; [21]
  Plant response rating, Barnyardgrass: 90
[7]; 500 g ai/ha, 0 to 100 scale, 0 no effect, 100 complete control
  Plant response rating, Barnyardgrass: 100
[8]; 125 g ai/ha, postemergence
  Plant response rating (0 to 100), Barnyardgrass: 10
[8]; 250 g ai/ha, postemergence
  Plant response rating (0 to 100), Barnyardgrass: 40
[8]; [23]
  Plant response rating, Barnyardgrass: 5
[8]; [19]
  Plant response rating, Barnyardgrass: 5
[9]; 125 g ai/ha, postemergence
  Plant response rating (0 to 100), Crabgrass, Large: 55
[9]; 250 g ai/ha, postemergence
  Plant response rating (0 to 100), Crabgrass, Large: 60
[9]; [23]
  Plant response rating, Crabgrass, Large: 5
[9]; [19]
  Plant response rating, Crabgrass, Large: 10
[10]
  Plant response rating, Barnyardgrass: 0
[11]
  Plant response rating, Rice: 0
[12]; [21]
  Plant response rating, Crabgrass, Large: 100
[12]; [24]
  Crabgrass, Large plant response rating: 100
[13]; 125 g ai/ha
  Plant response rating, Pigweed: 100
[13]; 500 g ai/ha
  Plant response rating, Pigweed: 100
[14]; 125 g ai/ha, postemergence
  Plant response rating (0 to 100), Foxtail, Giant: 10
[14]; 250 g ai/ha, postemergence
  Plant response rating (0 to 100), Foxtail, Giant: 65
[14]; [23]
  Plant response rating, Foxtail, Giant: 10
[14]; [19]
  Plant response rating, Foxtail, Giant: 10
[15]; [21]
  Plant response rating, Barnyardgrass: 80
[15]; [24]
  Barnyardgrass plant response rating: 100
